“Also recorded” adds a separate entry of the source. Counter-ions that a name gives are not always drawn. Like-named read-outs stand apart in the source and are kept apart here.
Tests used:
[1] = Comparison of solubility of compound Z and its salts; assay type: physicochemical
Description: An appropriate amount of the sample was weighed in a glass test tube and a selected solvent was gradually added therein to observe the clarification.

[2] = Chemical stability by stress testing (high temperature, high humidity, illumination); assay type: physicochemical; conditions: for stability, in words: high temperature, light and high humidity conditions
Description: The chemical stability of the basic compound Z prepared in Example 16 and the salts of compound Z prepared in Examples 5, 9 and 10 was compared through a stress testing, the results were shown in the table below: […]

[3] = Crystal stability of solid forms of hydrochlorate of compound Z; assay type: physicochemical
Description: (§1) The properties of crystalline form A prepared in Examples 11 or 12, crystalline form B prepared in Example 14 and amorphous substance prepared in Example 15 were compared, the results were shown in the following table 6.

[4] = Hygroscopicity of solid forms of hydrochlorate of compound Z; assay type: physicochemical
Description: as §1

[5] = Comparison of compound appearance and characters (odor); assay type: physicochemical
Description: The appearance and characters of the basic compound Z prepared in Example 16 and different salts of compound Z prepared in Examples 1-2, 5-6, 9 were observed, the results are shown in the table below: […]

[6] = In vivo pharmacokinetic experiment in rats; conditions: by gavage
Description: The in vivo pharmacokinetic experiment in rats were carried out for the basic compound Z prepared in Example 16, the hydrochlorate of compound Z prepared in Example 9, the succinate of compound Z prepared in Example 2, the fumarate of compound Z prepared in Example 3 (administered by gavage, dose 3 mg/kg), the results were shown in FIG. 8 of the specification.

[7] = selected solvent of pH 2 (composition not named), simulated gastric fluid, thermodynamic from solid, pH = 2, read-out: Solubility
[8] = selected solvent of pH 4.5 (composition not named), aqueous buffer, thermodynamic from solid, pH = 4.5, read-out: Solubility
[9] = selected solvent of pH 6.8 (composition not named), aqueous buffer, thermodynamic from solid, pH = 6.8, read-out: Solubility
[10] = thermodynamic from solid, water (deionized), read-out: Solubility
[11] = High humidity (25° C., 92.5% RH), 5 days
[12] = High humidity (25° C., 92.5% RH), 10 days
[13] = high temperature (60° C.), 5 days
[14] = high temperature (60° C.), 10 days
[15] = illumination (4500 lx ± 500 lx), 5 days
[16] = illumination (4500 lx ± 500 lx), 10 days

| Structure (SMILES) | solubility [1, 7] | solubility [1, 8] | solubility [1, 9] | solubility [1, 10] | characters ([2]; 0 days) | purity ([2]; 0 days) | characters [2, 11] | purity [2, 11] | characters [2, 12] | purity [2, 12] | characters [2, 13] | purity [2, 13] | characters [2, 14] | purity [2, 14] | characters [2, 15] | purity [2, 15] | characters [2, 16] | odor [5] | also measured |
| --- | --- | --- | --- | --- | --- | --- | --- | --- | --- | --- | --- | --- | --- | --- | --- | --- | --- | --- | --- |
| CCCOc1ccc(NC(=O)CN2CCN(C)CC2)cc1-c1nc(CC)c(CC)c(=O)[nH]1.O=C(O)[C@@H](O)[C@H](O)[C@H](O)[C@@H](O)C(=O)O [mucate of compound Z, 5,6-diethyl-2-[2-n-propoxy-5-(2-(4-methylpiperazin-1-yl)acetamido)phenyl]pyrimidin-4(3H)-one Mucate] |  |  |  |  |  |  |  |  |  |  |  |  |  |  |  |  |  |  | solubility ([1]; pH = 2): 36.3 mg/mL; solubility ([1]; pH = 4.5): 62.7 mg/mL; solubility ([1]; pH = 6.8): 39.0 mg/mL; solubility ([1]; water (deionized)): 10.6 mg/mL |
| CCCOc1ccc(NC(=O)CN2CCN(C)CC2)cc1-c1nc(CC)c(CC)c(=O)[nH]1.O=S(=O)(O)O [sulfate of compound Z, 5,6-diethyl-2-[2-n-propoxy-5-(2-(4-methylpiperazin-1-yl)acetamido)phenyl]pyrimidin-4(3H)-one Sulfate] | > 20.2 mg/mL | > 25.6 mg/mL | > 24.4 mg/mL | > 20.6 mg/mL | Yellow | 99.63% | Yellow powder | 99.64% | Yellow powder | 99.62% | Yellow | 99.59% | Yellow | 99.64% | Yellow | 97.43% | Gray-yellow |  | purity [2, 16]: 96.99% |
| CCCOc1ccc(NC(=O)CN2CCN(C)CC2)cc1-c1nc(CC)c(CC)c(=O)[nH]1 [form A, 5,6-diethyl-2-[2-n-propoxy-5-(2-(4-methylpiperazin-1-yl)acetamido)phenyl]pyrimidin-4(3H)-one hydrochloride monohydrate (Form A)] |  |  |  |  |  |  |  |  |  |  |  |  |  |  |  |  |  |  | Crystal stability [3]: stable; Crystal stability ([3]; listed as crystal form A): stable properties; hygroscopicity, in words [4]: low hygroscopicity; hygroscopicity, water absorption ([4]; 65% RH): 65% RH, water absorption 2.48%; hygroscopicity, water absorption ([4]; 80% RH): 80% RH, water absorption 3.41% |
| CCCOc1ccc(NC(=O)CN2CCN(C)CC2)cc1-c1nc(CC)c(CC)c(=O)[nH]1.CS(=O)(=O)O [methanesulfonate of compound Z, 5,6-diethyl-2-[2-n-propoxy-5-(2-(4-methylpiperazin-1-yl)acetamido)phenyl]pyrimidin-4(3H)-one Methanesulfonate] | > 22.4 mg/mL | > 25.4 mg/mL | > 23.2 mg/mL | > 23.8 mg/mL | White | 99.66% | Yellow | 99.54% | Yellow | 99.55% | White | 99.54% | White | 99.49% | White | 99.72% | White | No bad smell | purity [2, 16]: 99.46% |
| CCCOc1ccc(NC(=O)CN2CCN(C)CC2)cc1-c1nc(CC)c(CC)c(=O)[nH]1.O=C(O)/C=C\C(=O)O [maleate of compound Z, 5,6-diethyl-2-[2-n-propoxy-5-(2-(4-methylpiperazin-1-yl)acetamido)phenyl]pyrimidine-4(3H)-one Maleate] | 6.1 mg/mL | 21.4 mg/mL | 46.4 mg/mL | 5.8 mg/mL |  |  |  |  |  |  |  |  |  |  |  |  |  | No bad smell |  |
| CCCOc1ccc(NC(=O)CN2CCN(C)CC2)cc1-c1nc(CC)c(CC)c(=O)[nH]1.O=C(O)CCC(=O)O [succinate of compound Z, 5,6-diethyl-2-[2-n-propoxy-5-(2-(4-methylpiperazin-1-yl)acetamido)phenyl]pyrimidin-4(3H)-one Succinate] | > 20.8 mg/mL | > 22 mg/mL | > 20.8 mg/mL | > 24.8 mg/mL |  |  |  |  |  |  |  |  |  |  |  |  |  | No bad smell |  |
| CCCOc1ccc(NC(=O)CN2CCN(C)CC2)cc1-c1nc(CC)c(CC)c(=O)[nH]1.Cl [hydrochlorate of compound Z, 5,6-diethyl-2-[2-n-propoxy-5-(2-(4-methylpiperazin-1-yl)acetamido)phenyl]pyrimidine-4(3H)-one Hydrochlorate] | > 22.8 mg/mL | > 23.6 mg/mL | > 26.6 mg/mL | > 25 mg/mL | White | 99.77% | White | 99.73% | White | 99.77% | White | 99.65% | White | 99.71% | White | 99.79% | White | No bad smell | solubility, in words [1]: good solubility; stability, in words [2]: high stability; stability, in words ([2]; listed as hydrochlorate): stable; purity [2, 16]: 99.72%; oral bioavailability, in words ([6]; 3 mg/kg): high oral bioavailability; in vivo pharmacokinetic properties (plasma concentration-time curve, FIG. 8), in words ([6]; dose 3 mg/kg, compared with compound Z): significantly better |
| CCCOc1ccc(NC(=O)CN2CCN(C)CC2)cc1-c1nc(CC)c(CC)c(=O)[nH]1.O=C(O)/C=C/C(=O)O [fumarate of compound Z, 5,6-diethyl-2-[2-n-propoxy-5-(2-(4-methylpiperazin-1-yl)acetamido)phenyl]pyrimidin-4(3H)-one Fumarate] | > 24.2 mg/mL | > 20.2 mg/mL | > 27 mg/mL | > 26.6 mg/mL |  |  |  |  |  |  |  |  |  |  |  |  |  |  |  |
| CC(=O)O.CCCOc1ccc(NC(=O)CN2CCN(C)CC2)cc1-c1nc(CC)c(CC)c(=O)[nH]1 [acetate of compound Z, 5,6-diethyl-2-[2-n-propoxy-5-(2-(4-methylpiperazin-1-yl)acetamido)phenyl]pyrimidin-4(3H)-one Acetate] | 35.8 mg/mL | > 102 mg/mL | 22.6 mg/mL | 14 mg/mL |  |  |  |  |  |  |  |  |  |  |  |  |  |  |  |
| CCCOc1ccc(NC(=O)CN2CCN(C)CC2)cc1-c1nc(CC)c(CC)c(=O)[nH]1.O=C(O)C(O)C(O)C(=O)O [tartrate of compound Z, 5,6-diethyl-2-[2-n-propoxy-5-(2-(4-methylpiperazin-1-yl)acetamido)phenyl]pyrimidin-4(3H)-one Tartrate] | > 219 mg/mL | > 155 mg/mL | > 130 mg/mL | > 153 mg/mL |  |  |  |  |  |  |  |  |  |  |  |  |  | No bad smell |  |
| CCCOc1ccc(NC(=O)CN2CCN(C)CC2)cc1-c1nc(CC)c(CC)c(=O)[nH]1.Cl [Amorphous, 5,6-diethyl-2-[2-n-propoxy-5-(2-(4-methylpiperazin-1-yl)acetamido)phenyl]pyrimidin-4(3H)-one Hydrochloride (Amorphous)] |  |  |  |  |  |  |  |  |  |  |  |  |  |  |  |  |  |  | hygroscopicity, water absorption ([4]; 65% RH): 65% RH, water absorption 16.53%; hygroscopicity, water absorption ([4]; 80% RH): 80% RH, water absorption 6.74% |
| CCCOc1ccc(NC(=O)CN2CCN(C)CC2)cc1-c1nc(CC)c(CC)c(=O)[nH]1.Cl [form B, 5,6-diethyl-2-[2-n-propoxy-5-(2-(4-methylpiperazin-1-yl)acetamido)phenyl]pyrimidin-4(3H)-one Hydrochlorate (Form B)] |  |  |  |  |  |  |  |  |  |  |  |  |  |  |  |  |  |  | hygroscopicity, water absorption ([4]; 65% RH): 65% RH, water absorption 3.58%; hygroscopicity, water absorption ([4]; 80% RH): 80% RH, water absorption 11.3% |
| CCCOc1ccc(NC(=O)CN2CCN(C)CC2)cc1-c1nc(CC)c(CC)c(=O)[nH]1 [compound Z, 5,6-diethyl-2-[2-n-propoxy-5-(2-(4-methylpiperazin-1-yl)acetamido)phenyl]pyrimidin-4(3H)-one] | 5.3 mg/mL | 38.1 mg/mL | 1.7 mg/mL | 1.5 mg/mL | White | 99.6% | White | 99.64% | White | 99.53% | White | 99.69% | White | 99.36% | Yellowish | 99.37% | Yellowish | Pungent odor | solubility, in words [1]: poor solubility in water; also recorded: significantly lower; stability, in words [2]: relatively poor |

Source: patent US11434226B2, “Salt and polymorph of benzopyrimidinone compound and pharmaceutical composition and use thereof” (SHANGHAI INSTITUTE OF MATERIA MEDICA, CHINESE ACADEMY OF …, priority 2017, dated 2022)
